# Reference: patent US10259847B2, “Beta-hairpin peptidomimetics” (POLYPHOR AG, priority 2014, dated 2019)
# Where a SMILES comes first, the peptide text is derived from it. Bridges are numbered along the chain shown (N, C = ends). [ ]: non-standard residue; d: D form. Tle = CC(C)(C)[C@H](N)C(=O)O; dDab = NCC[C@@H](N)C(=O)O; Orn = NCCC[C@H](N)C(=O)O; Dab = NCC[C@H](N)C(=O)O; Dap = NC[C@H](N)C(=O)O
# Assays:
# Format in all cases: cell-based
# [1] = system: Acinetobacter baumannii DSM 30008; conditions: DSM 30008
# Summary of the method: (§1)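 Peptide activity was tested by NCCLS broth microdilution with slight modifications. Bacteria were diluted in cation-adjusted Mueller-Hinton II broth to approximately 10^6 CFU/mL against a 0.5 McFarland standard. They were then exposed to two-fold serial peptide dilutions in broth containing 0.002% final polysorbate 80.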
# [2] = system: Escherichia coli ATCC 25922; conditions: ATCC 25922
# Summary of the method: as §1
# [3] = system: Klebsiella pneumoniae ATCC 13883; conditions: ATCC 13883
# Summary of the method: as §1
# [4] = system: human red blood cells (hRBC); experiment: Hemolysis of human red blood cells; conditions: red cells of human, 1 h, 100
# Protocol: Stock solutions were kept at +4° C., light protected.
# Percent hemolysis was calculated as follows: (OD540peptide/OD540H2O)×100%.
Structure (SMILES),Acinetobacter baumannii DSM 30008 MIC [1] [µg/mL],Escherichia coli ATCC 25922 MIC [2] [µg/mL],Klebsiella pneumoniae ATCC 13883 MIC [3] [µg/mL],Hemolysis at 100 μg/mL [4] [%]
"CC(C)[C@@H]1NC(=O)[C@@H]2CCCN2C(=O)[C@H]2CCCN2C(=O)[C@H](CO)NC(=O)[C@@H]2CC(=O)NCC[C@H](NC1=O)C(=O)N[C@@H](Cc1ccc(O)cc1)C(=O)N[C@@H](CCN)C(=O)N[C@@H](CCN)C(=O)N[C@H](CCN)C(=O)N[C@@H](CCN)C(=O)N[C@@H](Cc1c[nH]c3ccccc13)C(=O)N[C@@H](CCN)C(=O)N[C@@H](C(C)(C)C)C(=O)N2 [Example 28] (HELM PEPTIDE1{V.[Dab].Y.[Dab].[Dab].[NCC[C@@H](N[*:1])C(=O)[*:2]].[Dab].W.[Dab].[CC(C)(C)[C@H](N[*:1])C(=O)[*:2]].D.S.[dP].P}$PEPTIDE1,PEPTIDE1,2:R3-11:R3|PEPTIDE1,PEPTIDE1,1:R1-14:R2$$$V2.0)",2,0.5,0.5,1
"CC(C)C[C@@H]1NC(=O)[C@@H]2CCCN2C(=O)[C@H]2CCCN2C(=O)[C@H](CO)NC(=O)[C@@H]2CCC(=O)NCC[C@H](NC1=O)C(=O)N[C@@H](Cc1ccc(O)cc1)C(=O)N[C@@H](CCN)C(=O)N[C@@H](CCCN)C(=O)N[C@H](CCN)C(=O)N[C@@H](CCN)C(=O)N[C@@H](Cc1c[nH]c3ccccc13)C(=O)N[C@@H](CCN)C(=O)N[C@@H](C(C)(C)C)C(=O)N2 [Example 30, cyclo(-Leu-Dab-Tyr-Dab-Orn-^DDab-Dab-Trp-Dab-tBuGly-Glu-Ser-^DPro-Pro-)] (HELM PEPTIDE1{L.[Dab].Y.[Dab].[Orn].[NCC[C@@H](N[*:1])C(=O)[*:2]].[Dab].W.[Dab].[CC(C)(C)[C@H](N[*:1])C(=O)[*:2]].E.S.[dP].P}$PEPTIDE1,PEPTIDE1,2:R3-11:R3|PEPTIDE1,PEPTIDE1,1:R1-14:R2$$$V2.0)",1,1,2,0.5
"CC(C)C[C@@H]1NC(=O)[C@@H]2CCCN2C(=O)[C@H]2CCCN2C(=O)[C@H](CO)NC(=O)[C@@H]2CC(=O)NCC[C@H](NC1=O)C(=O)N[C@@H](Cc1ccc(O)cc1)C(=O)N[C@@H](CCN)C(=O)N[C@@H](CCCN)C(=O)N[C@@H](CCN)C(=O)N[C@@H](CCN)C(=O)N[C@@H](Cc1c[nH]c3ccccc13)C(=O)N[C@@H](CCN)C(=O)N[C@@H](C(C)(C)C)C(=O)N2 [Example 32, cyclo(-Leu-Dab-Tyr-Dab-Orn-Dab-Dab-Trp-Dab-tBuGly-Asp-Ser-^DPro-Pro-)] (HELM PEPTIDE1{L.[Dab].Y.[Dab].[Orn].[Dab].[Dab].W.[Dab].[CC(C)(C)[C@H](N[*:1])C(=O)[*:2]].D.S.[dP].P}$PEPTIDE1,PEPTIDE1,2:R3-11:R3|PEPTIDE1,PEPTIDE1,1:R1-14:R2$$$V2.0)",0.5,0.5,0.5,1
"CC(C)C[C@@H]1NC(=O)[C@@H]2CCCN2C(=O)[C@H]2CCCN2C(=O)[C@H](CO)NC(=O)[C@@H]2CC(=O)NCC[C@H](NC1=O)C(=O)N[C@@H](Cc1ccc(O)cc1)C(=O)N[C@@H](CCN)C(=O)N[C@@H](CCCN)C(=O)N[C@H](CCN)C(=O)N[C@@H](CCN)C(=O)N[C@@H](Cc1c[nH]c3ccccc13)C(=O)N[C@@H](CCN)C(=O)N[C@@H](C(C)(C)C)C(=O)N2 [Example 37, cyclo(-Leu-Dab-Tyr-Dab-Orn-^DDab-Dab-Trp-Dab-tBuGly-Asp-Ser-^DPro-Pro-)] (HELM PEPTIDE1{L.[Dab].Y.[Dab].[Orn].[NCC[C@@H](N[*:1])C(=O)[*:2]].[Dab].W.[Dab].[CC(C)(C)[C@H](N[*:1])C(=O)[*:2]].D.S.[dP].P}$PEPTIDE1,PEPTIDE1,2:R3-11:R3|PEPTIDE1,PEPTIDE1,1:R1-14:R2$$$V2.0)",0.5,0.5,0.5,2.5

# Now from value to molecule, other results behind:
Acinetobacter baumannii DSM 30008 MIC [1] [µg/mL],Escherichia coli ATCC 25922 MIC [2] [µg/mL],Klebsiella pneumoniae ATCC 13883 MIC [3] [µg/mL],Structure (SMILES),Hemolysis at 100 μg/mL [4] [%]
4,4,1,"CC(C)C[C@@H]1NC(=O)[C@@H]2CCCN2C(=O)[C@H]2CCCN2C(=O)[C@H](CO)NC(=O)[C@@H]2CCC(=O)NC[C@H](NC1=O)C(=O)N[C@@H](Cc1ccc(O)cc1)C(=O)N[C@@H](CCN)C(=O)N[C@@H](CCCN)C(=O)N[C@@H](CCN)C(=O)N[C@@H](CCN)C(=O)N[C@@H](Cc1c[nH]c3ccccc13)C(=O)N[C@@H](CCN)C(=O)N[C@@H](C(C)(C)C)C(=O)N2 [Example 26, cyclo(-Leu-Dap-Tyr-Dab-Orn-Dab-Dab-Trp-Dab-tBuGly-Glu-Ser-^DPro-Pro-)] (HELM PEPTIDE1{L.[O=C([C@H](CN[*:3])N[*:1])[*:2]].Y.[Dab].[Orn].[Dab].[Dab].W.[Dab].[CC(C)(C)[C@H](N[*:1])C(=O)[*:2]].E.S.[dP].P}$PEPTIDE1,PEPTIDE1,2:R3-11:R3|PEPTIDE1,PEPTIDE1,1:R1-14:R2$$$V2.0)",0
1,1,0.5,"CC(C)C[C@@H]1NC(=O)[C@@H]2CCCN2C(=O)[C@H]2CCCN2C(=O)[C@H](CO)NC(=O)[C@@H]2CCC(=O)NC[C@H](NC1=O)C(=O)N[C@@H](Cc1ccc(O)cc1)C(=O)N[C@@H](CCN)C(=O)N[C@@H](CCCN)C(=O)N[C@H](CCN)C(=O)N[C@@H](CCN)C(=O)N[C@@H](Cc1c[nH]c3ccccc13)C(=O)N[C@@H](CCN)C(=O)N[C@@H](C(C)(C)C)C(=O)N2 [Example 29, cyclo(-Leu-Dap-Tyr-Dab-Orn-^DDab-Dab-Trp-Dab-tBuGly-Glu-Ser-^DPro-Pro-)] (cyclo(L[Dap]Y[Dab][Orn][dDab][Dab]W[Dab][Tle]ES[dP]P); lactam 2-11)",0.5
1,1,4,"CC(C)C[C@@H]1NC(=O)[C@@H]2CCCN2C(=O)[C@H]2CCCN2C(=O)[C@H](CO)NC(=O)[C@@H]2CC(=O)NCCCC[C@H](NC1=O)C(=O)N[C@@H](Cc1ccc(O)cc1)C(=O)N[C@@H](CCN)C(=O)N[C@@H](CCCN)C(=O)N[C@@H](CCN)C(=O)N[C@@H](CCN)C(=O)N[C@@H](Cc1c[nH]c3ccccc13)C(=O)N[C@@H](CCN)C(=O)N[C@@H](C(C)(C)C)C(=O)N2 [Example 33, cyclo(-Leu-Lys-Tyr-Dab-Orn-Dab-Dab-Trp-Dab-tBuGly-Asp-Ser-^DPro-Pro-)] (HELM PEPTIDE1{L.K.Y.[Dab].[Orn].[Dab].[Dab].W.[Dab].[CC(C)(C)[C@H](N[*:1])C(=O)[*:2]].D.S.[dP].P}$PEPTIDE1,PEPTIDE1,2:R3-11:R3|PEPTIDE1,PEPTIDE1,1:R1-14:R2$$$V2.0)",1
1,0.5,0.5,"CC(C)C[C@@H]1NC(=O)[C@@H]2CCCN2C(=O)[C@H]2CCCN2C(=O)[C@H](CO)NC(=O)[C@@H]2CNC(=O)CC[C@H](NC1=O)C(=O)N[C@@H](Cc1ccc(O)cc1)C(=O)N[C@@H](CCN)C(=O)N[C@@H](CCCN)C(=O)N[C@H](CCN)C(=O)N[C@@H](CCN)C(=O)N[C@@H](Cc1c[nH]c3ccccc13)C(=O)N[C@@H](CCN)C(=O)N[C@@H](C(C)(C)C)C(=O)N2 [Example 34, cyclo(-Leu-Glu-Tyr-Dab-Orn-^DDab-Dab-Trp-Dab-tBuGly-Dap-Ser-^DPro-Pro-)] (cyclo(LEY[Dab][Orn][dDab][Dab]W[Dab][Tle][Dap]S[dP]P); lactam 2-11)",1
1,0.5,2,"CC(C)C[C@@H]1NC(=O)[C@@H]2CCCN2C(=O)[C@H]2CCCN2C(=O)[C@H](CO)NC(=O)[C@@H]2CC(=O)NCCCC[C@H](NC1=O)C(=O)N[C@@H](Cc1ccc(O)cc1)C(=O)N[C@@H](CCN)C(=O)N[C@@H](CCCN)C(=O)N[C@H](CCN)C(=O)N[C@@H](CCN)C(=O)N[C@@H](Cc1c[nH]c3ccccc13)C(=O)N[C@@H](CCN)C(=O)N[C@@H](C(C)(C)C)C(=O)N2 [Example 35, cyclo(-Leu-Lys-Tyr-Dab-Orn-^DDab-Dab-Trp-Dab-tBuGly-Asp-Ser-^DPro-Pro-)] (HELM PEPTIDE1{L.K.Y.[Dab].[Orn].[NCC[C@@H](N[*:1])C(=O)[*:2]].[Dab].W.[Dab].[CC(C)(C)[C@H](N[*:1])C(=O)[*:2]].D.S.[dP].P}$PEPTIDE1,PEPTIDE1,2:R3-11:R3|PEPTIDE1,PEPTIDE1,1:R1-14:R2$$$V2.0)",0
1.5,0.5,0.125,"CC(C)C[C@@H]1NC(=O)[C@@H]2CCCN2C(=O)[C@H]2CCCN2C(=O)[C@H](CO)NC(=O)[C@@H]2CC(=O)NC[C@H](NC1=O)C(=O)N[C@@H](Cc1ccc(O)cc1)C(=O)N[C@@H](CCN)C(=O)N[C@@H](CCCN)C(=O)N[C@H](CCN)C(=O)N[C@@H](CCN)C(=O)N[C@@H](Cc1c[nH]c3ccccc13)C(=O)N[C@@H](CCN)C(=O)N[C@@H](C(C)(C)C)C(=O)N2 [Example 36, cyclo(-Leu-Dap-Tyr-Dab-Orn-^DDab-Dab-Trp-Dab-tBuGly-Asp-Ser-^DPro-Pro-)] (cyclo(L[Dap]Y[Dab][Orn][dDab][Dab]W[Dab][Tle]DS[dP]P); lactam 2-11)",4.5
